The values that follow come from the RepoRT retention time repository (doi:10.1016/j.chroma.2015.11.014).

The data set can be described thus: RP, Agilent ZORBAX Eclipse Plus C18, 150 × 2.1 mm, 3.5 µm, 40 °C, 0.3 mL/min, estimated dead time 1.1 min; A: water + 0.1% formic acid; B: acetonitrile + 0.1% formic acid; gradient (min/%B) 0/2 1/2 2/20 16.5/98 22/98. The note with it: stereoisomer not certain.

In the case of `CCOP(=O)(OCC)OCC`, the LC retention time is 7.41 min.
In the case of `CC[N+](CC)(CC([O-])=Nc1c(C)cccc1C)Cc1ccccc1`, the LC retention time was 7.58 min.
For `CCCc1nn(C)c2c(=O)[nH]c(-c3cc(S(=O)(=O)N4CCN(C)CC4)ccc3OCC)nc12` the value was 7.28 min; for `CCCCC1=NC2(CCCC2)C(=O)N1Cc1ccc(-c2ccccc2-c2nn[nH]n2)cc1`, 9.35 min.
For the compound `CC(=O)C1CCC2C3CCC4=CC(=O)CCC4(C)C3CCC12C` (stereo not drawn), the LC retention time is 13.8 min.
With `CN(C)c1ccc(-c2nc3ccccc3[nH]2)cc1`, the LC retention time is 6.52 min.
For the compound `c1ccc2c(c1)Nc1ccccc1S2`, the LC retention time is 13.1 min.
Take `c1ccc([P+](Cc2ccccn2)(c2ccccc2)c2ccccc2)cc1`: the LC retention time was 8.34 min.
On to `O=[P+](c1ccccc1)c1ccccc1`, for which the LC retention time was 8.03 min.
Regarding `CCOc1ccc2ccccc2c1C(=O)NC1C(=O)N2C1SC(C)(C)C2C(=O)O` (stereo not drawn), the LC retention time is 10.6 min.
For `CC12CCC3c4ccc(OCc5ccccc5)cc4CCC3C1CC(O)C2O` (stereo not drawn) the value was 13.3 min; for `Cc1cc(C2CCCCC2)n(O)c(=O)c1`, 4.49 min.
Consider `COC1C=COC2(C)Oc3c(C)c(O)c4c(O)c(c5c(nc6cc(C)ccn65)c4c3C2=O)NC(=O)C(C)=CC=CC(C)C(O)C(C)C(O)C(C)C(OC(C)=O)C1C` (stereo not drawn), for which the LC retention time is 11.8 min.
Consider `NCC(O)COc1ccccc1` (stereo not drawn), for which the LC retention time is 4.75 min.
Take `Cc1ccnc2c1NC(=O)c1cccnc1N2C1CC1`: the LC retention time was 7.3 min.
As for `CC(O)CCCCn1c(=O)c2c(ncn2C)n(C)c1=O` (stereo not drawn), the LC retention time was 6.42 min.
On to `COC1C(OC(C)=O)CC(=O)OC(C)CC=CC=CC(O)C(C)CC(CC=O)C1OC1OC(C)C(OC2CC(C)(O)C(OC(=O)CC(C)C)C(C)O2)C(N(C)C)C1O` (stereo not drawn), for which the LC retention time is 8.87 min.
Regarding `O=P(O)(OCc1ccccc1)OCc1ccccc1`, the LC retention time is 9.05 min.
Next, `[O-]N(O)c1ccc(C[P+](c2ccccc2)(c2ccccc2)c2ccccc2)cc1`: 8.52 min; `COc1cc(NS(=O)(=O)c2ccc(N)cc2)nc(OC)n1`: 8.09 min; `CCCCCCCCCCCCOCC[N+](C)(C)Cc1ccccc1`: 12.7 min.
Regarding `CC1(C)CCCC(C)(C)N1O`, the LC retention time is 10.4 min.
In the case of `CNNCc1ccc(C(=O)NC(C)C)cc1`, the LC retention time is 4.91 min.
Next, `CC(Cc1ccc(C(C)(C)C)cc1)CN1CC(C)OC(C)C1` (stereo not drawn): 9.53 min; `CCOP(=S)(OCC)Oc1cc(C)nc(C(C)C)n1`: 14.5 min; `O=P(c1ccccc1)(c1ccccc1)c1ccccc1`: 10.5 min.
Take `CC(C)(C(=O)O)c1ccc(C(=O)CCCN2CCC(OC(c3ccccc3)c3ccccc3)CC2)cc1`: the LC retention time is 10 min.
Next, `COc1ccc(C(C[N+](C)(C)[O-])C2(O)CCCCC2)cc1` (stereo not drawn): 7.25 min.
Next, `Cc1ccc(-c2nc3ccccc3[nH]2)cc1`: 6.06 min; `O=C1CC2(CCCCC2)CN1`: 7.59 min.
As for `CSc1nc2ccccc2s1`, the LC retention time was 12.2 min.
On to `CCCCCCOC(=O)c1ccccc1C(=O)OCCCCCC`, for which the LC retention time was 18.1 min.
In the case of `NCCc1c[nH]c2ccccc12`, the LC retention time is 4.97 min.
Regarding `Nc1ccc(C(=O)O)c(O)c1`, the LC retention time was 5.48 min.
Consider `CC1CC2C(C(O)CC3(C)C2CCC3(O)C(=O)CO)C2(C)C=CC(=O)C=C12` (stereo not drawn), for which the LC retention time was 9.02 min.
Take `CC(C)(C)CC(C)(C)c1ccc(O)c(-n2nc3ccccc3n2)c1`: the LC retention time is 19.6 min.
For the compound `CNCc1ccc(CSCCNC(=C[N+](=O)[O-])NC)o1`, the LC retention time was 4.77 min.
For `CCC1(c2ccccc2)C(=O)NCNC1=O` the value was 6.35 min; for `CC(C)NCC(O)COc1cccc2[nH]ccc12` (stereo not drawn), 5.15 min; for `CCCC1OC2CC3C4CCC5=CC(=O)C=CC5(C)C4C(O)CC3(C)C2(C(=O)CO)O1` (stereo not drawn), 11 min.
Consider `COC(=O)C1=C(C)NC(C)=C(C(=O)OC)C1c1ccccc1[N+](=O)[O-]`, for which the LC retention time is 10.9 min.
Consider `COC(=O)Nc1nc2ccccc2[nH]1`, for which the LC retention time is 5.08 min.
With `O=C(O)C(c1ccccc1)C1CCCCN1` (stereo not drawn), the LC retention time is 4.91 min.
On to `CCCC[N+]1(C)CCCC1`, for which the LC retention time was 4.27 min.
For `Cn1c(=O)c2[nH]cnc2n(C)c1=O` the value was 4.94 min.
Next, `Cc1ccc2n[nH]nc2c1`: 7.02 min.
Consider `CN(C)c1nc2c(ncn2C2OC(CO)C(O)C2O)c(=O)[nH]1` (stereo not drawn), for which the LC retention time was 4.57 min.
In the case of `CN(C)c1ccc(C(c2ccccc2)c2ccc(N(C)C)cc2)cc1`, the LC retention time was 9.97 min.
As for `C[P+](c1ccccc1)(c1ccccc1)c1ccccc1`, the LC retention time is 7.19 min.
In the case of `CCCCCCCCCCCCCC[P+](CCCC)(CCCC)CCCC`, the LC retention time was 14.9 min.
With `CNC(=O)Oc1cccc2c1OC(C)(C)C2`, the LC retention time was 9.75 min.
As for `O=[N+]([O-])c1ccc(O)c([N+](=O)[O-])c1`, the LC retention time is 9.21 min.
Next, `CCNc1nc(NC(C)(C)C)[nH]c(=O)n1`: 5.98 min; `Nc1nc(N)c2nc(-c3ccccc3)c(N)nc2n1`: 5.2 min.
Turning to `CNC(=O)ON=C(C)C(C)SC` (stereo not drawn), the LC retention time was 7.75 min.
Regarding `Cn1cnc2c(=O)[nH]c(N)nc21`, the LC retention time was 2.43 min.
Regarding `CN1CCCC1=O`, the LC retention time was 4.39 min.
For `O=C1c2ccccc2C(=O)C1c1nc2ccccc2cc1O`, the LC retention time was 14.7 min.
For `CC(C)COP(=O)(OCC(C)C)OCC(C)C`, the LC retention time was 14 min.
`CC(=C(CCO)SSC(CCO)=C(C)N(C=O)Cc1cnc(C)nc1N)N(C=O)Cc1cnc(C)nc1N`: the LC retention time was 4.48 min.
For `COc1cc(C(=O)O)cc(OC)c1O`, the LC retention time is 5.7 min.
As to `CC(C)c1ccc(OP(=O)(Oc2ccc(C(C)C)cc2)Oc2ccc(C(C)C)cc2)cc1`, the LC retention time is 18.9 min.
On to `CCCCP(=O)(O)O`, for which the LC retention time was 4.77 min.
Next, `O=c1[nH]c(=O)c2[nH]c(=O)[nH]c2[nH]1`: 2.08 min; `Nc1nc(=S)c2[nH]cnc2[nH]1`: 2.69 min.
`O=c1[nH]c(=O)c2[nH]cnc2[nH]1`: the LC retention time is 2.43 min.
As to `CCCCCCCC[N+](CCCCCCCC)(CCCCCCCC)CCCCCCCC`, the LC retention time was 16.2 min.
Next, `C#CC[P+](c1ccccc1)(c1ccccc1)c1ccccc1`: 7.93 min; `c1cncc(-c2nc3ccccc3[nH]2)c1`: 5.16 min; `CCNc1nc(NC(C)(C)C)nc(S(C)=O)n1` (stereo not drawn): 8.82 min.
For `CCN(CC)C(=O)c1cccc(C(=O)O)c1` the value was 7.36 min; for `CCCCCCCCN1CCCC1=O`, 12.6 min; for `CCOC(=O)NS(=O)(=O)c1ccc(C)cc1`, 9.54 min.
